pIC50: −log10 of the molar value. Where two headings read alike, the source gives them in different places.
Legend:
Assay type in all cases: cell-based
[1] = tested on: caspase-3 and caspase-7 in MCF-10A cells; test: Caspase 3/7 activation (Caspase-Glo 3/7) in MCF-10A normal cells; details: Homo sapiens, R=RLU at 20 μM/RLU at 0 μM, 24 h, read-out: Caspase 3/7 activation R (RLU fold increase from untreated cells)
Procedure: (§1) Human normal mammary epithelial MCF-10A cells were plated in a 96 well plate at 10000 cells/100 μL at 37° C. in 5% CO2. Serial dilutions of drugs (compounds 1, 3 or 4) ranging from 20 μM to 300 nM were added at day 0. Active caspase-3 and caspase-7 were measured in triplicate after 24 h treatment by incubating 50 μL of the Caspase-Glo 3/7 reagent for 60 min at 25° C. This reagent containing the proluminescent tetrapeptide sequence DEVD in a cell lysis buffer (Promega) (FIG. 9).
(§2) The calculated values R correspond to Relative Luminescence Units (RLU) fold increase from untreated cells (R=RLU at 20 μM/RLU at 0 μM).
(§3) Caspase 3/7 activation in MCF-10A and HME-1 normal cells was also measured.

[2] = tested on: Human breast tumor SUM149 cells; test: Inhibition of tumor cell growth (alamar blue), SUM149; details: 120 h
Procedure: (§4) All biological experiments (Examples 2 to 9) have been performed with recommended cell line specific culture medium. For SUM149 and L226, culture medium is supplemented with 10% Fetal Calf Serum. For HME-1 and MCF-10A, culture medium is supplemented with 5% Horse Serum.
Human breast tumor SUM149 cells (Inflammatory Breast Cancer (IBC) of basal subtype) were plated in a 96 well plate at 3000 cells/100 μL at 37° C. in 5% CO2. Compounds 1, 3, 4, 5, 6, 7, 8, 9, 10, 11, 12, 13, 14 at 10 μM were added at day 0 and day 3. The number of viable cells was determined in triplicate at day 5 by incubating 10 μL of the alamar blue staining solution for 2 hours at 37° C. (FIG. 1).
(§5) Human breast tumor SUM149 cells were plated in a 96 well plate at 3000 cells/100 μL at 37° C. in 5% CO2. Serial dilutions of drugs (compounds 1, 3 or 4) ranging from 20 μM to 300 nM were added at day 0 and day 3. The number of viable cells was determined in triplicate at day 5 by incubating 10 μL of the alamar blue staining solution for 2 hours at 37° C. (FIG. 2).
IC50 values of compounds 1-14 for the inhibition of SUM149 and L226 tumor cells growth were measured (according to the experimental procedure of Examples 2 and 3):
Human breast tumor SUM149 cells were plated in a 96 well plate at 3000 cells/100 μL at 37° C. in 5% CO2 in recommended medium containing 10% FCS or in synthetic medium without FCS. Serial dilutions of drug (compound 4) ranging from 10 μM to 0.16 μM were added at day 0 and day 3. The number of viable cells was determined in triplicate at day 5 by incubating 10 μL of the alamar blue staining solution for 2 hours at 37° C. (FIG. 11). The […] in recommended medium containing 10% FCS was measured at 2 μM, while it was measured at 0.6 μM without FCS.

[3] = tested on: Human breast tumor L226 cells; test: Inhibition of tumor cell growth (alamar blue), L226; details: 120 h, calculated on the basis of cell growth inhibition, day 5, alamar blue
Procedure: as §4
Human breast tumor L226 cells (Inflammatory Breast Cancer (IBC) of ERB-B2 subtype) were plated in a 96 well plate at 3000 cells/100 μL at 37° C. in 5% CO2. Serial dilutions of drugs (compounds 1, 3 or 4) ranging from 20 μM to 300 nM were added at day 0 and day 3. The number of viable cells was determined in triplicate at day 5 by incubating 10 μL of the alamar blue staining solution for 2 hours at 37° C. (FIG. 3).
IC50 values of compounds 1-14 for the inhibition of SUM149 and L226 tumor cells growth were measured (according to the experimental procedure of Examples 2 and 3): […]

[4] = tested on: Human normal mammary epithelial MCF-10A cells; test: Effect on growth of normal cells (alamar blue), MCF-10A; details: calculated on the basis of cell growth inhibition
Procedure: as §4
as §5, with “normal mammary epithelial MCF-10A” for “breast tumor SUM149”, “5).” for “2).”
(§6) IC50 values of compounds 1-14 for the inhibition of MCF-10A and HME-1 normal cells growth were also measured (according to the experimental procedure of Examples 4 and 5): […]

[5] = tested on: caspase-3 and caspase-7 in L226 cells; test: Caspase 3/7 activation (Caspase-Glo 3/7) in L226 tumor cells; details: Homo sapiens, R=RLU at 20 μM/RLU at 0 μM, 24 h, read-out: Caspase 3/7 activation R (RLU fold increase from untreated cells)
Procedure: as §1, with “breast tumor L226” for “normal mammary epithelial MCF-10A”, “7).” for “9).”
Caspase 3/7 activation in SUM149 and L226 tumor cells was measured.
as §2

[6] = tested on: Human normal mammary epithelial HME-1 cells; test: Effect on growth of normal cells (alamar blue), HME-1; details: HME1, calculated on the basis of cell growth inhibition
Procedure: as §4
as §5, with “normal mammary epithelial HME-1” for “breast tumor SUM149”, “4).” for “2).”
as §6

[7] = tested on: caspase-3 and caspase-7 in HME-1 cells; test: Caspase 3/7 activation (Caspase-Glo 3/7) in HME-1 normal cells; details: Homo sapiens, HME1, R=RLU at 20 μM/RLU at 0 μM, 24 h, read-out: Caspase 3/7 activation R (RLU fold increase from untreated cells)
Procedure: as §1, with “HME-1” for “MCF-10A”, “8).” for “9).”
as §2, §3

[8] = calculated on the basis of cell growth inhibition, day 5, alamar blue, read-out: IC50 for the inhibition of SUM149 tumor cells growth

pIC50 [2, 8] | pIC50 [3] | pIC50 ([2]; recommended medium containing 10% FCS, day 5, read-out: IC50 of SUM149 cell growth in recommended medium) | pIC50 ([2]; synthetic medium without FCS, day 5, read-out: IC50 of SUM149 cell growth without FCS) | SMILES | fold induction at 20 µM [1] | pIC50 [4] | fold induction at 20 µM [5] | pIC50 [6] | fold induction at 20 µM [7]
5.60 | 5.70 | – | – | Cc1c(C)c(C)c(S(=O)(=O)N2CCSC(C)(C)[C@@H]2C(=O)NO)c(C)c1C [Compound 12, (3S)—N-hydroxy-4-[(2,3,4,5,6-pentamethylphenyl)sulfonyl]-2,2-dimethyl-3-thiomorpholine carboxamide] | 1.1 | 4.82 | 6.2 | < 4.70 | 1.2
5.60 | 5.60 | 5.70 | 6.22 | Cc1cc(C)c(C)c(S(=O)(=O)N2CCSC(C)(C)[C@@H]2C(=O)NO)c1C [Compound 4, (3S)—N-hydroxy-4-[(2,3,5,6-tetramethylphenyl)sulfonyl]-2,2-dimethyl-3-thiomorpholine carboxamide] | 1 | 4.70 | 7.4 | < 4.70 | 1

Source: patent US9193699B2, “Apoptosis inducing compounds” (INSTITUT NATIONAL DE LA SANTE ET DE LA RECHERCHE MEDICALE …, priority 2011, dated 2015)
